Earlier results in US10822295B2, “Menaquinol compositions and methods of treatment” (Epizon Pharma, Inc., priority 2018, dated 2020).

What was measured:
normal blood coagulation = settings: compared to vitamin K1 and MK-4
[1] = compared to MK-4
incidence of fractures = settings: in vivo

half-life in serum [1]	Structure (SMILES)	effects on normal blood coagulation (normal blood coagulation)	incidence of fractures (incidence of fractures)
long half-life	CC(C)=CCC/C(C)=C/CC/C(C)=C/CC/C(C)=C/CC/C(C)=C/CC/C(C)=C/CC/C(C)=C/CC1=C(C)C(=O)c2ccccc2C1=O [MK-7, menaquinone-7]	greater and longer lasting	–
–	CC(C)=CCC/C(C)=C/CC/C(C)=C/CC/C(C)=C/CC1=C(C)C(=O)c2ccccc2C1=O [MK-4, menaquinone-4]	–	decrease the incidence of fractures
